Experimental data from patent publication US9150546B2, “Triazine derivative and pharmaceutical composition comprising the same” (SHIONOGI & CO., LTD., priority 2009, dated 2015).

The molecules below were run against human P2X3 receptor (Homo sapiens (Human), UniProt P56373) (assay: P2X3 receptor inhibition, ATP-evoked Fluo-3 fluorescence (FDSS 3000)). Conditions: C6BU-1 cell transfected with human P2X3 receptor gene.
Format: cell-based

human P2X3 receptor, sequence (P56373 whole entry): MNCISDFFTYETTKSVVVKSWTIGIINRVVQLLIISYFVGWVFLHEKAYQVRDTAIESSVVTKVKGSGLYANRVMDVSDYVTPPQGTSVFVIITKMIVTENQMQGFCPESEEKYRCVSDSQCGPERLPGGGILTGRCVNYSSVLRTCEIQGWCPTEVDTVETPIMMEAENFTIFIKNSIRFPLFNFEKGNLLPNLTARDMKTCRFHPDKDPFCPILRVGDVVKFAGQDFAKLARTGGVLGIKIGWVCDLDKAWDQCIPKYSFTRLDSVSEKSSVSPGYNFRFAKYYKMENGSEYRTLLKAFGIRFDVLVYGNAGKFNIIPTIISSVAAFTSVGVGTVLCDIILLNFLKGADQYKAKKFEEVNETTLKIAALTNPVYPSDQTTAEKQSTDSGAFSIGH

Row | Compound | IC50
1 | CCOc1nc(=O)n(Cc2ccc(Cl)cc2)/c(=N/c2ccc(OC(C)C)c(Cl)c2)[nH]1 [II-014] | 254 nM
2 | CC(C)Oc1ccc(/N=c2\n(C)c(=O)n(CCOC3CCCCO3)c(=O)n2Cc2ccc(Cl)cc2)cc1F (centres unmarked) [I-546] | 459 nM
3 | COc1ccc(Nc2nc(=O)n(CCO)c(=O)n2Cc2ccc(Cl)cc2)cc1F [I-305] | 946 nM
4 | COC(=O)C(C)(C)Cn1c(=O)[nH]/c(=N\c2ccc(OC(C)C)c(F)c2)n(Cc2ccc(Cl)cc2)c1=O [I-403] | 15 nM
5 | Cc1cc2cc(/N=c3\[nH]c(=O)n(CC(C)(C)C(=O)O)c(=O)n3Cc3ccc(Cl)cc3)ccc2o1 [I-491] | 27 nM
6 | CCOC(=O)CCCn1c(=O)[nH]/c(=N\c2ccc(OC(C)C)c(C)c2)n(Cc2ccc(C)cc2)c1=O [I-521] | 4 nM
7 | CCOc1ccc(/N=c2\[nH]c(=O)n(CC(C)(C)C(=O)OC)c(=O)n2Cc2ccc(Cl)cc2)cc1Cl [I-441] | 11 nM
8 | CC(C)Oc1ccc(Nc2nc(=O)n(CC3(CO)CC3)c(=O)n2Cc2ccc(Cl)cc2)cc1F [I-335] | 7 nM
9 | CCOC(=O)CCn1c(=O)nc(Nc2ccc(OC(C)C)c(Cl)c2)n(Cc2ccc(Cl)cc2)c1=O [I-354] | 8 nM
10 | Cc1ccc(Cn2c(Nc3ccc(Oc4ccccc4)cc3)nc(=O)n(C(C)C)c2=O)cc1 [I-116] | 484 nM
11 | COC(=O)C[C@H](C)n1c(=O)[nH]/c(=N\c2ccc(OC(C)C)c(Cl)c2)n(Cc2ccc(Cl)cc2)c1=O [I-522] | 29 nM
12 | COC(=O)[C@@H](C)Cn1c(=O)nc(Nc2ccc(OC(C)C)c(C)c2)n(Cc2ccc(Cl)cc2)c1=O [I-531] | 10 nM
13 | COC(=O)[C@H](C)Cn1c(=O)[nH]/c(=N\c2ccc3oc(C)cc3c2)n(Cc2ccc(Cl)cc2)c1=O [I-558] | 5 nM
14 | Cc1ccc(Cn2c(=O)n(CC(=O)N[C@H](C)C(=O)O)c(=O)[nH]/c2=N\c2ccc(OC(C)C)c(F)c2)cc1 [I-417] | 35 nM
15 | Cc1ccc(Cn2c(Nc3cccc(C(F)(F)F)c3)nc(=O)n(C(C)(C)C)c2=O)cc1 [I-097] | 505 nM
16 | CC(C)n1c(=O)nc(Nc2ccc(Oc3ccccc3)cc2)n(Cc2ccc(Cl)cn2)c1=O [I-164] | 860 nM
17 | CC(C)Oc1ccc(Nc2nc(=O)n(CCNC(=O)N(C)C)c(=O)n2Cc2ccc(Cl)cc2)cc1F [I-388] | 36 nM
18 | CC(C)Oc1ccc(/N=c2\[nH]c(=O)n(Cc3ccc(C(=O)O)cc3)c(=O)n2Cc2ccc(Cl)cc2)cc1F [I-445] | 8 nM
19 | CC(C)Oc1ccc(Nc2nc(=O)n(CCO)c(=O)[nH]2)cc1F [I-325] | 665 nM

Row | Compound | IC50
20 | CC(C)Oc1ccc(/N=c2\[nH]c(=O)n(CC(C)(C)C(=O)O)c(=O)n2CC2CCCCC2)cc1Cl [I-551] | 34 nM
21 | COC(=O)C(C)(C)Cn1c(=O)[nH]/c(=N\c2cccc(Cl)c2)n(Cc2ccc(Cl)cc2)c1=O [I-466] | 37 nM
22 | CCCn1c(=O)nc(Nc2ccc(OC(C)C)c(F)c2)n(Cc2ccccc2)c1=O [I-349] | 113 nM
23 | CC(C)Oc1ccc(Nc2nc(=O)n(CCN3CCOCC3)c(=O)n2Cc2ccc(Cl)cc2)cc1F [I-281] | 12 nM
24 | CCOc1ccc(Nc2nc(=O)n(C[C@H](C)C(=O)OC)c(=O)n2Cc2ccc(Cl)cc2)cc1C [I-532] | 29 nM
25 | CC(C)Oc1ccc(Nc2nc(=O)n(CC(N)=O)c(=O)n2Cc2ccc(Cl)cc2)cc1F [I-295] | 46 nM
26 | CC(C)n1c(=O)nc(Nc2cccc(C(F)(F)F)c2)n(Cc2ccc(Cl)cn2)c1=O [I-162] | 379 nM
27 | CC(C)Oc1ccc(Nc2nc(=O)n(CCCN)c(=O)n2Cc2ccc(Cl)cc2)cc1F [I-317] | 137 nM
28 | CC(C)Oc1ccc(Nc2nc(=O)n(CCNC(N)=O)c(=O)n2Cc2ccc(Cl)cc2)cc1F [I-386] | 41 nM
29 | CC(C)Oc1ccc(/N=c2\[nH]c(=O)n(Cc3cccc(C(=O)O)c3)c(=O)n2Cc2ccc(Cl)cc2)cc1F [I-451] | 16 nM
30 | Cc1ccc(Cn2c(=O)n(CC(=O)NC(CO)CO)c(=O)[nH]/c2=N\c2ccc(OC(C)C)c(F)c2)cc1 [I-414] | 7 nM
31 | CCOc1ccc(/N=c2\[nH]c(=O)n(C[C@@H](C)C(=O)OC)c(=O)n2Cc2ccc(Cl)cc2)cc1C [I-481] | 12 nM
32 | COC(=O)C[C@@H](C)n1c(=O)[nH]/c(=N\c2ccc(OC(C)C)c(C)c2)n(Cc2ccc(Cl)cc2)c1=O [I-557] | 19 nM
33 | CC(C)Oc1ccc(Nc2nc(=O)n(CC3CCOCC3)c(=O)n2Cc2ccc(Cl)cc2)cc1F [I-275] | 21 nM
34 | CCCCn1c(=O)nc(Nc2cccc(C(F)(F)F)c2)n(Cc2ccc(C)cc2)c1=O [I-029] | 595 nM
35 | O=c1nc(Nc2ccc(OC(F)F)cc2)n(Cc2ccc(Cl)cc2)c(=O)n1CCO [I-329] | 266 nM
36 | CCNC(=O)NCCn1c(=O)nc(Nc2ccc(OC(C)C)c(F)c2)n(Cc2ccc(Cl)cc2)c1=O [I-389] | 64 nM
37 | CC(C)Oc1ccc(/N=c2\[nH]c(=O)n(CC(=O)NCC#N)c(=O)n2Cc2ccc(Cl)cc2)cc1Cl [I-435] | 6 nM
38 | CC(C)(Cn1c(=O)[nH]/c(=N\c2ccc3[nH]ccc3c2)n(Cc2ccc(Cl)cc2)c1=O)C(=O)O [I-478] | 629 nM

Row | Compound | IC50
39 | CCOC(=O)CCCn1c(=O)[nH]/c(=N\c2ccc(OC(C)C)c(Cl)c2)n(Cc2ccc(Cl)cc2)c1=O [I-498] | 9 nM
40 | CC(C)(Cn1c(=O)[nH]/c(=N\c2cccc(OC(F)F)c2)n(Cc2ccc(Cl)cc2)c1=O)C(=O)O [I-448] | 388 nM
41 | CC(C)Oc1ccc(Nc2nc(=O)n(C(C)C)c(=O)n2Cc2ccc(Cl)cc2)cc1C#N [I-245] | 168 nM
42 | Cc1ccc(Cn2c(=O)n(CCCC(=O)O)c(=O)[nH]/c2=N\c2ccc(OC(C)C)c(C)c2)cc1 [I-525] | 54 nM
43 | CC(C)Oc1ccc(/N=c2\[nH]c(=O)n(CCC(C)(C)C(=O)O)c(=O)n2Cc2ccc(Cl)cc2)cc1F [I-420] | 53 nM
44 | Cc1cc(/N=c2\[nH]c(=O)n([C@H](C)CC(=O)O)c(=O)n2Cc2ccc(Cl)cc2)ccc1OC(C)C [I-563] | 40 nM
45 | CCn1ccc2cc(/N=c3\[nH]c(=O)n(CC(C)(C)C(=O)O)c(=O)n3Cc3ccc(Cl)cc3)ccc21 [I-493] | 952 nM
46 | CCOC(=O)COc1ccc(Nc2nc(=O)n(C(C)C)c(=O)n2Cc2ccc(Cl)cc2)cc1Cl [I-241] | 447 nM
47 | Cc1ccc(Cn2c(Nc3ccc(OC(C)C)cc3)nc(=O)n(C(C)C)c2=O)cc1F [I-217] | 268 nM
48 | Cc1nc2ccc(/N=c3\[nH]c(=O)n(CC(C)(C)C(=O)O)c(=O)n3Cc3ccc(Cl)cc3)cc2o1 [I-496] | 125 nM
49 | CC(C)Oc1ccc(Nc2nc(=O)n(CCN)c(=O)n2Cc2ccc(Cl)cc2)cc1F [I-290] | 266 nM
50 | COC(=O)[C@H](C)Cn1c(=O)[nH]/c(=N\c2ccc(OC(C)C)c(F)c2)n(Cc2ccc(Cl)cc2)c1=O [I-452] | 3 nM
51 | COC(=O)[C@@H](C)Cn1c(=O)[nH]/c(=N\c2ccc(OC(C)C)c(Cl)c2)n(Cc2ccc(Cl)cc2)c1=O [I-458] | 4 nM
52 | CC(C)Oc1ccc(/N=c2\[nH]c(=O)n([C@H](C)CC(=O)O)c(=O)n2Cc2ccc(Cl)cc2)cc1Cl [I-561] | 8 nM
53 | CCOc1ccc(/N=c2\[nH]c(=O)n(CC(C)(C)C(=O)O)c(=O)n2Cc2ccc(Cl)cc2)cc1 [I-542] | 96 nM
54 | CC(C)Cc1ccc(Nc2nc(=O)n(CCO)c(=O)n2Cc2ccc(Cl)cc2)cc1 [I-328] | 124 nM
55 | CNC(=O)Cn1c(=O)[nH]/c(=N\c2ccc(OC(C)C)c(Cl)c2)n(Cc2ccc(Cl)cc2)c1=O [I-436] | 8 nM
56 | COC(=O)[C@@H](C)Cn1c(=O)nc(Nc2ccc(OC(C)C)cc2)n(Cc2ccc(Cl)cc2)c1=O [I-529] | 22 nM
